The results in this text go back to patent publication EP0111809A1, “Pyrazolo(4.3-b)(1.4)oxazines, processes for their preparation and their use as medicaments” (Troponwerke GmbH & Co. KG, priority 1982, dated 1984).

Assay [1] concerns Carrageenanödembildung. Nature of the assay: Carrageenan-induced oedema model, oral administration. The format is in vivo. The note with it: Hemmung der Carrageenanödembildung nach oraler Gabe. From the text: Die erfindungsgemäßen Verbindungen sind auch in-vivo wirksam. Diese Wirkung wird durch die Messung der Hemmung der Leukozytenmigration nach an sich bekannten Methoden nachgewiesen (vgl. Higgs et al., Biochemical Pharmacology 28, 1959, (1979) und Eur. J. Pharmacol. 66,81 (1981)). Die erfindungsgemäßen Verbindungen reduzieren auch die ödembildung im Carrageenan-Entzündungsmodell, (vgl. Tabelle C) und hemmen die Metastasierung von B-16 Melanom (nach Honn, et.al. Science 212, 1981).
Background: In the carrageenan paw model, swelling and tenderness develop within hours.

In assay [2] the test system is Hyperalgesie. Nature of the assay: Randall-Selitto hyperalgesia test, oral administration. The format is in vivo. Conditions: Hemmung der Hyperalgesie nach Randall-Selitto nach oraler Gabe. From the text: Die erfindungsgemäßen Verbindungen sind auch in vivo wirksam im Hyperalgesie-Test nach Randall-Selitto, vgl. Tabelle B (Randall, L.O., Selitto, J., Arch. Int. Pharmakodyn, 111, 209-219, 1957).

Assay [3] relates to Lipoxygenase in PMN-Leukozyten. The assay is described as follows: Inhibition of lipoxygenase in PMN leukocytes (release of 5-HETE). The format is cell-based. The note with it: species (human or rabbit) not given. From the text: Der Nachweis der lipoxygenasehemmenden Eigenschaften der neuen, erfindungsgemäßen Verbindungen erfolgt analog der Methode von Bailey et al., J. Biol. Chem. 255, 5996, 1980 und nach Blackwell and Flower, Prostaglandins 16, 417, 1978. Bei dieser Testmethode wird der Metabolismus radioaktiv markierter Arachidonsäure an gewaschenen Humanthrombozyten untersucht. Bei diesem in-vitro-Test werden die radioaktiv markierten Metaboliten aus dem Reaktionsansatz extrahiert und dünnschichtchromatographisch getrennt. Das Autoradiogramm wird mit Dünnschichtscanner ausgewertet. Bei diesen Testbedingungen werden die markierten Metaboliten von der nicht umgesetzten Arachidonsäure getrennt und sind anschließend auszuwerten. Die Verteilung der Radioaktivität auf die während der Metabolisierung gebildeten Cyclooxygenaseprodukte Thromboxan B2 (TXB2) und 12-Hydroxy-5.8.10-heptadekatriensäure (HHT) bzw. das Lipoxygenaseprodukt 12-Hydroxy-5.8.11.14-eikosa- tetraensäure (HETE) unter dem Einfluß der Inhibitoren stellt ein Maß für die Hemmung der Enzyme dar.
Analog dem o.a. Test lassen sich die lipoxygenasehemmenden Eigenschaften der neuen, erfindungsgemäßen Verbindungen auch an Leukozyten nachweisen. Die polymorphkernigen Leukozyten des Menschen und des Kaninchens metabolisieren die Arachidonsäure zu 5-Hydroxy-5.8.11.14-eikosatetraensäure (5-HETE) und Leukotrien B4 (5S, 12R-Dihydroxy-6 cis, 8.10 trans, 14 ciseikosatetraensäure). Die Hemmung der Freisetzung von 5-HETE und Leukotrien B4 aus den Leukozyten stellt ein Maß für den lipoxygenasehemmenden Effekt der neuen, erfindungsgemäßen Verbindungen dar (vgl. Tabelle A).
Der Test mit den Humanleukozyten wird nach Borgeat and Samuelsson (J.Biol. Chem. 254, 2643, 1979 und Proc. Natl. Acad. Sci. U.S.A. 76, 2148, 1979), mit Kaninchenleukozyten nach Walker and Parish (Intern. Archs. Allergy Appl. Immun. 66, 83, 1981) durchgeführt.

Bounds are passed on as bounds.

Turning to “2-Methyl-5-phenylpyrazolo[4.3-b][1.4]oxazin [Beispiel 2]”, the “DE50[mg/kg], oral” value in assay [1] is 10,3 mg/kg; in assay [2], 0,80 mg/kg. In addition, in assay [3], the “Minimale Konzentration (mol/l) für die Hemmung der Lipoxygenase in PMN-Leukozyten (5-HETE)” value (“Minimale Konzentration” for short) was 5 . 10^-6 mol/l.

Turning to `CN1c2[nH]ncc2O[C@@H](c2ccccc2)[C@H]1c1ccccc1` (relative stereo) [Beispiel 3, cis-7-Methyl-5,6-diphenylpyrazolo[4.3-b][1.4]oxazin], the “DE50[mg/kg], oral” value in assay [1] is 12,7 mg/kg; in assay [2], 1,23 mg/kg. In addition, the “Minimale Konzentration” value in assay [3] was 5 . 10^-6 mol/l.

Consider `CN1C=COc2cn[nH]c21` [Beispiel 1, 7-Methylpyrazolo[4.3-b][1.4]oxazin], for which the figures for the “DE50[mg/kg], oral” value in assay [1] and in assay [2] were 13,3 mg/kg and 19,7 mg/kg, respectively. For the same molecule, the “Minimale Konzentration” value in assay [3] is > 10^-5 mol/l.

Regarding `Cc1n[nH]c2c1OC(c1ccccc1)=C(c1ccccc1)N2C` [Beispiel 4, 3,7-Dimethyl-5,6-diphenylpyrazolo[4.3-b][1.4]oxazin], the “DE50[mg/kg], oral” value is listed as 11,3 mg/kg in assay [1] and 7,7 mg/kg in assay [2]. The “Minimale Konzentration” value in assay [3] is 10^-5 mol/l.

As to `CCCc1n[nH]c2c1OC(c1ccccc1)=C(c1ccccc1)N2C` [Beispiel 5, 7-Methyl-3-propyl-5,6-diphenylpyrazolo[4.3-b][1.4]oxazin], the “DE50[mg/kg], oral” value in assay [1] is on record as 14,2 mg/kg. The “Minimale Konzentration” value in assay [3] was > 10^-5 mol/l.

Regarding `CC(=O)n1nc(C)c2c1N(C)C(c1ccccc1)=C(c1ccccc1)O2` [Beispiel 6, 1-Acetyl-3,7-dimethyl-5.6-diphenylpyrazolo[4.3-b][1.4]-oxazin], the “DE50[mg/kg], oral” value in assay [1] is on record as 2,5 mg/kg. In addition, the “Minimale Konzentration” value in assay [3] is 5 . 10^-6 mol/l.

On to `CC(C)c1n[nH]c2c1OC(c1ccccc1)C(c1ccccc1)N2C` (centres unmarked) [compound 7], for which the “Minimale Konzentration” value in assay [3] is given as 5 . 10^-6 mol/l.

Regarding `CN1CCOc2cn(Cc3ccc(Cl)c(Cl)c3)nc21` [compound 8], in assay [3], the “Minimale Konzentration” value is listed as 10^-5 mol/l.

On to `CN1CC(c2ccccc2)Oc2cn(C)nc21` (centres unmarked) [compound 9], for which the “Minimale Konzentration” value in assay [3] is given as 10^-5 mol/l.

Take `CN1c2[nH]ncc2OC(c2ccccc2)C1c1ccccc1` (centres unmarked) [compound 10]: the “Minimale Konzentration” value in assay [3] is reported as 5.10^-6 mol/l.
